From US20130053430A1, “MODULATION OF CETP EXPRESSION” (Isis Pharmaceuticals, Inc., priority 2010, published 2013)
e = 2'-O-(2-methoxyethyl) (MOE); d = 2'-deoxy (DNA)

Tests used:
CETP protein [1] = test: Plasma CETP protein by ELISA, normal or cholesterol-enriched chow (Example 6); format: in vivo, human; conditions: 50 mg/kg s.c. twice per week
Method: (§1) The normal chow-fed mice were divided into three treatment groups. The cholesterol-enriched chow-fed mice were divided into three treatment groups. […] One chow-fed group and one cholesterol-enriched chow-fed group received subcutaneous injections of saline twice weekly for 6 weeks. The saline-injected groups served as the control groups to which the corresponding oligonucleotide-treated groups were compared.
Plasma levels of CETP protein were measured by ELISA (Alpco, N.H.). […] The results are expressed as percentage inhibition compared to the PBS control.

ABCA1 = test: Liver ABCA1 mRNA expression (Example 9); format: in vivo, mice; conditions: percentage increase or decrease compared to PBS control, s.c. 6 weeks
Method: (§2) Another group received subcutaneous injections of control oligonucleotide ISIS 141923 at a dose of 50 mg/kg/week for 6 weeks. One group of mice received subcutaneous injections of PBS for 6 weeks. The PBS-injected group served as the control group to which treatment groups were compared.
Liver RNA was isolated for real-time PCR analysis of ABCA1, ApoAI, and SR-B1. ATP-binding cassette transporter ABCA1 (member 1 of human transporter sub-family ABCA), also known as the cholesterol efflux regulatory protein (CERP) is a protein which in humans is encoded by the ABCA1 gene (Luciani, M. F. et al., Genomics. 1994. 21: 150-9). This transporter is a major regulator of cellular cholesterol and phospholipid homeostasis. Apolipoprotein A-I is a protein that in humans is encoded by the APOA1 gene (Breslow, J. L. et al., Proc. Natl. Acad. Sci. USA 1982. 79: 6861-5). Apolipoprotein A-I is the major protein component of HDL in plasma. The protein promotes cholesterol efflux from tissues to the liver for excretion. Scavenger receptor class B, type I (SR-BI) is an integral membrane protein found in numerous cell types/tissues, including the liver and adrenal (Acton, S. L. et al., J. Biol. Chem. 1994. 269: 21003-21009). It is best known for its role in facilitating the uptake of cholesteryl esters from high-density lipoproteins in the liver. Therefore, all three genes have a role in HDL regulation.
The primer probe set RTS1204 (forward sequence […], designated herein as SEQ ID NO: 122, reverse sequence […], designated herein as SEQ ID NO: 123, probe sequence AGGCCCAGACCTGTAAAGGCGAAGX, with X a fluorophore, designated herein as SEQ ID NO: 124) was used to measure abca1 levels. The primer probe set RTS14737 (forward sequence […], designated herein as SEQ ID NO: 125, reverse sequence […], designated herein as SEQ ID NO: 126, probe sequence CTGCAGGAACGGCTGGGCCCX, with X a fluorophore, designated herein as SEQ ID NO: 127) was used to measure apoA1 levels. The primer probe set mSRB-1 (forward sequence […], designated herein as SEQ ID NO: 128, reverse sequence ATGCGACTTGTCAGGCTGG, designated herein as SEQ ID NO: 129, probe sequence CGTGGAGAACCGCAGCCTCCATTX, with X a fluorophore, designated herein as SEQ ID NO: 130) was used to measure sr-b1 levels. The results are presented in Table 44 as percentage increase or decrease in the respective expression levels compared to the PBS control. Both primer probe sets produced similar results. The RNA expression levels were normalized to murine Cyclophilin. Treatment with ISIS 349517 caused an increase in ApoA1 and SR-B1 levels.

[2] = Plasma glucose (Example 6); format: in vivo, mice; conditions: 50 mg/kg s.c. twice per week
Method: as §1
Plasma glucose values were determined using a Beckman Glucose Analyzer II (Beckman Coulter) by a glucose oxidase method (Lott, J. A. et al., Clin. Chem. 21: 1754-1760, 1975).

[3] = Liver function, plasma ALT and AST, dose response (Example 9); format: in vivo, mice
Method: as §2

[4] = Organ weights (Example 6); format: in vivo, mice; conditions: 50 mg/kg s.c. twice per week for 6 weeks, end of study
Text: as §1

CETP protein [5] = test: Plasma CETP protein by ELISA, dose response (Example 9); format: in vivo, human; conditions: huCETP transgenic mice, Western diet, s.c. 6 weeks
Method: as §2
Plasma CETP protein levels were measured by ELISA (Alpco). The results are expressed as percent inhibition of CETP protein, relative to the PBS control.

[6] = Body and organ weights of huCETP transgenic mice (Example 5); format: in vivo; conditions: 50 mg/kg i.p. twice per week
Method: The mice were divided into five treatment groups. The first four groups received intraperitoneal injections of ISIS 349511, ISIS 349512, ISIS 349515, or ISIS 349517 at a dose of 50 mg/kg twice per week for 6 weeks. The fifth group received intraperitoneal injections of saline twice weekly for 6 weeks.
The body weights of the mice were measured pre-dose and regularly during the treatment period. The body weights are presented in Table 10, and are expressed in grams.

ISIS 349517: 5-10-5 MOE gapmer CAGCACTTTAATGCCAGTGG (sugars from the 5' end e5 d10 e5, backbone and methylation of C not given here)
Percent inhibition of plasma CETP protein levels (CETP protein [1]; Cholesterol chow, Week 3): 97% | Percent inhibition of plasma CETP protein levels (CETP protein [1]; Cholesterol chow, Week 6): 96% | Percent inhibition of plasma CETP protein levels (CETP protein [1]; Normal chow, Week 3): 95% | Percent inhibition of plasma CETP protein levels (CETP protein [1]; Normal chow, Week 6): 91% | Percent inhibition of liver mRNA expression, ABCA1 (ABCA1; Dose 1.5 mg/kg/wk): +6% | Percent inhibition of liver mRNA expression, ABCA1 (ABCA1; Dose 5 mg/kg/wk): +15% | Percent inhibition of liver mRNA expression, ABCA1 (ABCA1; Dose 15 mg/kg/wk): −6% | Percent inhibition of liver mRNA expression, ABCA1 (ABCA1; Dose 50 mg/kg/wk): −15% | Glucose levels ([2]; Cholesterol chow, Week 0): 277 mg/dL | Glucose levels ([2]; Cholesterol chow, Week 3): 245 mg/dL | Glucose levels ([2]; Cholesterol chow, Week 6): 240 mg/dL | Glucose levels ([2]; Normal chow, Week 0): 263 mg/dL | Glucose levels ([2]; Normal chow, Week 3): 257 mg/dL | Glucose levels ([2]; Normal chow, Week 6): 211 mg/dL | ALT levels ([3]; 1.5 mg/kg/wk, Week 0): 20 IU/L | AST levels ([3]; 1.5 mg/kg/wk, Week 0): 38 IU/L | ALT levels ([3]; 1.5 mg/kg/wk, Week 3): 18 IU/L | AST levels ([3]; 1.5 mg/kg/wk, Week 3): 43 IU/L | ALT levels ([3]; 1.5 mg/kg/wk, Week 6): 54 IU/L | AST levels ([3]; 1.5 mg/kg/wk, Week 6): 133 IU/L | ALT levels ([3]; 5 mg/kg/wk, Week 0): 26 IU/L | AST levels ([3]; 5 mg/kg/wk, Week 0): 40 IU/L | ALT levels ([3]; 5 mg/kg/wk, Week 3): 25 IU/L | AST levels ([3]; 5 mg/kg/wk, Week 3): 46 IU/L | ALT levels ([3]; 5 mg/kg/wk, Week 6): 49 IU/L | AST levels ([3]; 5 mg/kg/wk, Week 6): 246 IU/L | ALT levels ([3]; 15 mg/kg/wk, Week 0): 24 IU/L | AST levels ([3]; 15 mg/kg/wk, Week 0): 24 IU/L | ALT levels ([3]; 15 mg/kg/wk, Week 3): 27 IU/L | AST levels ([3]; 15 mg/kg/wk, Week 3): 47 IU/L | ALT levels ([3]; 15 mg/kg/wk, Week 6): 36 IU/L | AST levels ([3]; 15 mg/kg/wk, Week 6): 70 IU/L | ALT levels ([3]; 50 mg/kg/wk, Week 0): 27 IU/L | AST levels ([3]; 50 mg/kg/wk, Week 0): 27 IU/L | ALT levels ([3]; 50 mg/kg/wk, Week 3): 33 IU/L | AST levels ([3]; 50 mg/kg/wk, Week 3): 52 IU/L | ALT levels ([3]; 50 mg/kg/wk, Week 6): 76 IU/L | AST levels ([3]; 50 mg/kg/wk, Week 6): 171 IU/L | Kidney weight ([4]; Cholesterol chow): 317 mg | Liver weight ([4]; Cholesterol chow): 1.8 g | Spleen weight ([4]; Cholesterol chow): 93 mg | Kidney weight ([4]; Normal chow): 279 mg | Liver weight ([4]; Normal chow): 1.6 g | Spleen weight ([4]; Normal chow): 113 mg | Percent inhibition of plasma CETP protein levels (CETP protein [5]; Dose 1.5 mg/kg/wk): 58% | Percent inhibition of plasma CETP protein levels (CETP protein [5]; Dose 5 mg/kg/wk): 74% | Percent inhibition of plasma CETP protein levels (CETP protein [5]; Dose 15 mg/kg/wk): 81% | Percent inhibition of plasma CETP protein levels (CETP protein [5]; Dose 50 mg/kg/wk): 80% | Body weights ([6]; Week 0): 25 grams | Body weights ([6]; Week 1): 27 grams | Body weights ([6]; Week 2): 28 grams | Body weights ([6]; Week 4): 28 grams | Body weights ([6]; week 6): 29 grams | Organ weights, Kidney ([6]; week 6): 355.5 mg | Organ weights, Liver ([6]; week 6): 1.7 g | Organ weights, Spleen ([6]; week 6): 89.0 mg

ISIS 349511: 5-10-5 MOE gapmer CCCGACCTCCTTGGAGACTT (sugars from the 5' end e5 d10 e5, backbone and methylation of C not given here)
Percent inhibition of plasma CETP protein levels (CETP protein [1]; Cholesterol chow, Week 3): 89% | Percent inhibition of plasma CETP protein levels (CETP protein [1]; Cholesterol chow, Week 6): 85% | Percent inhibition of plasma CETP protein levels (CETP protein [1]; Normal chow, Week 3): 81% | Percent inhibition of plasma CETP protein levels (CETP protein [1]; Normal chow, Week 6): 85% | Glucose levels ([2]; Cholesterol chow, Week 0): 238 mg/dL | Glucose levels ([2]; Cholesterol chow, Week 3): 289 mg/dL | Glucose levels ([2]; Cholesterol chow, Week 6): 225 mg/dL | Glucose levels ([2]; Normal chow, Week 0): 239 mg/dL | Glucose levels ([2]; Normal chow, Week 3): 288 mg/dL | Glucose levels ([2]; Normal chow, Week 6): 206 mg/dL | Kidney weight ([4]; Cholesterol chow): 305 mg | Liver weight ([4]; Cholesterol chow): 1.4 g | Spleen weight ([4]; Cholesterol chow): 80 mg | Kidney weight ([4]; Normal chow): 248 mg | Liver weight ([4]; Normal chow): 1.0 g | Spleen weight ([4]; Normal chow): 74 mg | Body weights ([6]; Week 0): 19 grams | Body weights ([6]; Week 1): 21 grams | Body weights ([6]; Week 2): 23 grams | Body weights ([6]; Week 4): 25 grams | Body weights ([6]; week 6): 26 grams | Organ weights, Kidney ([6]; week 6): 312.5 mg | Organ weights, Liver ([6]; week 6): 1.3 g | Organ weights, Spleen ([6]; week 6): 76.0 mg

ISIS 141923: CCTTCCCTGAAGGTTCCTCC, 5-10-5 MOE gapmer, a control oligonucleotide which has no known murine target (sugars from the 5' end e5 d10 e5, backbone and methylation of C not given here) [reference compound]
Percent inhibition of liver mRNA expression, ABCA1 (ABCA1; Dose 50 mg/kg/wk): +16% | ALT levels ([3]; 50 mg/kg/wk, Week 0): 27 IU/L | AST levels ([3]; 50 mg/kg/wk, Week 0): 26 IU/L | ALT levels ([3]; 50 mg/kg/wk, Week 3): 27 IU/L | AST levels ([3]; 50 mg/kg/wk, Week 3): 46 IU/L | ALT levels ([3]; 50 mg/kg/wk, Week 6): 45 IU/L | AST levels ([3]; 50 mg/kg/wk, Week 6): 107 IU/L | Percent inhibition of plasma CETP protein levels (CETP protein [5]; Dose 50 mg/kg/wk): 7%
